Reference: PMC9696794, “Synthesis and Antimicrobial Activity of Short Analogues of the Marine Antimicrobial Peptide Turgencin A: Effects of SAR Optimizations, Cys-Cys Cyclization and Lipopeptide Modifications” (International Journal of Molecular Sciences, 2022)
Converted amounts (≈) assume the structure as drawn. Where a SMILES comes first, the peptide text is derived from it. Bridges are numbered along the chain shown (N, C = ends).

What was measured:
E. coli (Ec, ATCC 25922) = experiment: microbe, parasite or virus in culture; type: cell-based, Escherichia coli
Method: (§1) All cyclic and linear peptides were screened for antibacterial activity against four Gram-positive strains: B. subtilis (Bs, ATCC 23857), C. glutamicum (Cg, ATCC 13032), S. aureus (Sa, ATCC 9144) and S. epidermidis RP62A (Se, ATCC 35984), and two Gram-negative strains: E. coli (Ec, ATCC 25922) and P. aeruginosa (Pa, ATCC 27853). The activity was assessed using a broth microdilution assay according to a modified CLSI-based method. Briefly, overnight bacterial cultures were grown in Mueller–Hinton (MH) broth medium (Difco Laboratories, Detroit, MI, USA) for 2 h at room temperature. The optical density (OD600) was measured, and the bacterial suspensions were adjusted to 2.5–3 × 10^4 CFU/mL in MH medium. The bacterial suspension (50 µL) was distributed in 96-well plates (Nunc, Roskilde, Denmark) preloaded with two-fold dilution series (256 to 1 µg/mL) of peptide solutions (50 µL), giving a final well volume of 100 µL. The microplates were incubated in an EnVision 2103 microplate reader (PerkinElmer, Llantrisant, UK) at 35 °C, with OD595 recorded every hour for 24 h. MIC was defined as the lowest concentration of peptides showing an optical density less than 10% of the negative (growth) control, consisting of bacterial suspension and water. Polymyxin B sulfate (Sigma-Aldrich, St. Louis, MO, USA) and chlorhexidine acetate (CHX, Fresenius Kabi, Halden, Norway), both with concentrations ranging from 12.5 to 0.09 μg/mL, served as positive (growth inhibition) controls. All peptides were tested in triplicate.

[1] = tested on: E. coli NR698 (outer membrane permeable mutant, imp4213); experiment: microbe, parasite or virus in culture; settings: for MIC E. coli NR698 (mutant): MC4100 NR698 imp4213, deficient outer membrane
Method: as §1
(§2) MIC values were determined for all cyclic peptides against two E. coli strains: wild type (WT) MC4100 and the hyperpermeable variant NR698, having a deficient outer membrane. The NR698 strain, containing lptD4213/imp4213 mutation, was kindly provided by M. Grabowicz (Emory University School of Medicine, Rollins Research Center, Atlanta, GA, USA). The assay was performed in the same way as previously described for the antibacterial MIC assay.

[2] = tested on: E. coli MC4100 (wild type, WT); experiment: microbe, parasite or virus in culture
Method: as §1, §2

[3] = tested on: C. albicans (Ca, ATCC 10231); experiment: microbe, parasite or virus in culture; type: cell-based, Candida albicans
Method: (§3) The synthesized peptides were screened for antifungal activity against the molds A. pullulans (Ap) and Rhodotorula sp. (Rh) (both obtained from Professor Arne Tronsmo, The Norwegian University of Life Sciences, Ås, Norway) and the yeast C. albicans (Ca, ATCC 10231) as previously described. In short, fungal spores were grown in potato dextrose broth media (Difco) containing 2% D(+)-glucose (Merck, Darmstadt, Germany) at 25–30 °C while shaking at 200 rpm overnight. The cultures were diluted with a dextrose media containing glucose to a concentration of approx. 4 × 10^5 spores/mL. Aliquots of the cultures (50 µL) were transferred to 96 well microtiter plates preloaded with the synthetic peptides (50 µL) in two-fold serial dilutions (256 to 1 µg/mL). Polymyxin B and CHX (both with concentrations ranging from 12.5 to 0.09 μg/mL) served as positive antibiotic controls. The microtiter plates containing the fungal spores and the test peptides were incubated at room temperature for 48 h and OD600 was recorded using a Synergy H1 Hybrid microplate reader system (BioTek, Winooski, VT, USA). MIC was defined as the lowest peptide concentration showing an optical density less than 10% of the negative (growth) control. All experiments were performed in triplicate.

[4] = tested on: S. aureus (Sa, ATCC 9144); experiment: microbe, parasite or virus in culture; type: cell-based, Staphylococcus aureus
Method: as §1

all bacterial strains = experiment: Antibacterial MIC assay, all bacterial strains together (range or geometric mean); type: cell-based
Method: The selectivity index (SI) of the peptides towards bacteria over eukaryotic cells was calculated using the geometric mean (GM) of the MIC values against all bacterial test strains, according to the method by Orlov et al.. The SI for each peptide was determined as the ratio of the RBC-EC50 value by the corresponding GM value. Larger SI values indicate greater selectivity for microbial cells. […] In general, the SI was higher against the Gram-positive bacteral strains than the Gram-negative strains. (Table S3). Overall, peptides displaying EC50 < 100 µg/mL were considered too haemolytic to be of interest for further exploration.
as §1

[5] = tested on: Gram-negative bacterial strains (E. coli and P. aeruginosa); experiment: Antibacterial MIC assay, Gram-negative strains together (range or geometric mean); type: cell-based; settings: Table S3; MIC >256 set to 256
Method: as §1

[6] = tested on: S. epidermidis RP62A (Se, ATCC 35984); experiment: microbe, parasite or virus in culture; type: cell-based, Staphylococcus epidermidis
Method: as §1

[7] = tested on: Gram-positive bacterial strains; settings: Table S3; MIC >256 set to 256
Method: as §1

[8] = tested on: P. aeruginosa (Pa, ATCC 27853); experiment: microbe, parasite or virus in culture; type: cell-based, Pseudomonas aeruginosa
Method: as §1

[9] = tested on: C. glutamicum (Cg, ATCC 13032); experiment: microbe, parasite or virus in culture; type: cell-based, Corynebacterium glutamicum
Method: as §1

[10] = tested on: fungi (A. pullulans, C. albicans, Rhodotorula sp.); experiment: Antifungal MIC assay, all fungi together (range or geometric mean); type: cell-based; settings: Table S3; MIC >128 set to 128
Method: as §3

Rhodotorula sp. (Rh) = experiment: microbe, parasite or virus in culture; type: cell-based; settings: 48 h
Method: as §3

[11] = tested on: B. subtilis (Bs, ATCC 23857); experiment: microbe, parasite or virus in culture; type: cell-based, Bacillus subtilis
Method: as §1

A. pullulans (Ap) = experiment: microbe, parasite or virus in culture; type: cell-based, Aurobasidium pollulans; settings: 48 h
Method: as §3

CN[C@H](CC(C)C)C(=O)N[C@H]1C(=O)N[C@@H](CC(N)=O)C(=O)N[C@H]2C(=O)N[C@H]3C(=O)N[C@H](C(=O)N[C@H](C(=O)O)c4cc(O)cc(O)c4-c4cc3ccc4O)[C@H](O)c3ccc(c(Cl)c3)Oc3cc2cc(c3O[C@@H]2O[C@H](CO)[C@@H](O)[C@H](O)[C@H]2O[C@H]2C[C@](C)(N)[C@H](O)[C@H](C)O2)Oc2ccc(cc2Cl)[C@H]1O [Vancomycin, reference compound]
MIC (E. coli (Ec, ATCC 25922); Escherichia coli, ATCC25922, read-out: MIC E. coli ATCC 25922 (from Table 1)): 125 µg/mL (≈ 86.3 µM)
MIC ([1]; Escherichia coli, read-out: MIC E. coli NR698 (mutant)): 0.3 µg/mL (≈ 0.207 µM)
MIC ([2]; Escherichia coli, read-out: MIC E. coli MC4100 (WT)): 64 µg/mL (≈ 44.2 µM)

CC(C)C[C@H](NC(=O)[C@H](CCCCN)NC(=O)[C@@H]1CSSC[C@H](N)C(=O)NCC(=O)N[C@@H](CCCCN)C(=O)N[C@@H](CCCCN)C(=O)N2CCC[C@H]2C(=O)NCC(=O)NCC(=O)N[C@@H](Cc2c[nH]c3ccccc23)C(=O)N[C@@H](CCCCN)C(=O)N1)C(N)=O [cTurg-1] (H-CGKKPGGWKCKL-NH2; disulfide 1-10; N-terminus assumed)
Antimicrobial Activity (MIC) Fungi Ca ([3]; ATCC 10231, 48 h): 128 µg/mL
Antimicrobial Activity (MIC) Gram + Sa ([4]; ATCC 9144, 24 h): >256 µg/mL
GM (geometric mean of the MIC values against all bacterial strains) (all bacterial strains; Table 1, six bacterial strains): 161 µg/mL
GM of MIC Tot. bact. (all bacterial strains; Table S3, all bacterial test strains, MIC >256 set to 256): 161 µg/mL
MIC against all bacterial strains (all bacterial strains; span over the strains): ≥ 256 µg/mL
GM of MIC G- [5]: 256 µg/mL
Antimicrobial Activity (MIC) Gram + Se ([6]; ATCC 35984, 24 h): >256 µg/mL
GM of MIC G+ [7]: 128 µg/mL
Antimicrobial Activity (MIC) Gram − Pa ([8]; ATCC 27853, 24 h): >256 µg/mL
Antimicrobial Activity (MIC) Gram + Cg ([9]; ATCC 13032, 24 h): 16 µg/mL
Antimicrobial Activity (MIC) Gram − Ec (E. coli (Ec, ATCC 25922); ATCC 25922, 24 h): >256 µg/mL
GM of MIC Fungi [10]: 64 µg/mL
Antimicrobial Activity (MIC) Fungi Rh (Rhodotorula sp. (Rh)): 64 µg/mL
Antimicrobial Activity (MIC) Gram + Bs ([11]; ATCC 23857, 24 h): 256 µg/mL
Antimicrobial Activity (MIC) Fungi Ap (A. pullulans (Ap)): 32 µg/mL
MIC E. coli NR698 (mutant) [1]: 64 µg/mL (≈ 49.2 µM)

Polymyxin B [reference compound]
Antimicrobial Activity (MIC) Fungi Ca ([3]; C. albicans ATCC 10231, 48 h): 12.5 µg/mL
Antimicrobial Activity (MIC) Gram + Sa ([4]; S. aureus ATCC 9144, 24 h): 12.5 µg/mL
Antimicrobial Activity (MIC) Gram + Se ([6]; S. epidermidis RP62A ATCC 35984, 24 h): 6.3 µg/mL
Antimicrobial Activity (MIC) Gram − Pa ([8]; P. aeruginosa ATCC 27853, 24 h): 3.1 µg/mL
Antimicrobial Activity (MIC) Gram + Cg ([9]; C. glutamicum ATCC 13032, 24 h): 3.1 µg/mL
Antimicrobial Activity (MIC) Gram − Ec (E. coli (Ec, ATCC 25922); E. coli ATCC 25922, 24 h): 3.1 µg/mL
MIC E. coli ATCC 25922 (from Table 1) (E. coli (Ec, ATCC 25922); Table 2, laboratory strain): 3.1 µg/mL
Antimicrobial Activity (MIC) Fungi Rh (Rhodotorula sp. (Rh); Rhodotorula sp.): 3.1 µg/mL
Antimicrobial Activity (MIC) Gram + Bs ([11]; B. subtilis ATCC 23857, 24 h): 3.1 µg/mL
Antimicrobial Activity (MIC) Fungi Ap (A. pullulans (Ap); A. pullulans): 3.1 µg/mL
MIC E. coli NR698 (mutant) [1]: 0.2 µg/mL
MIC E. coli MC4100 (WT) ([2]; wild type): 0.8 µg/mL
